Reference: patent US10912818B2, “Use of microorganisms for the prevention and treatment of intestinal diseases” (Ludwig Stocker Hofpfisterei GmbH, priority 2013, dated 2021)
Entries after “also recorded” stand apart in the source; their conditions may differ.

Tests used:
[1] = tested on: corpus circular muscle preparations; test: Motility: contractile force of corpus circular muscle preparations in organ bath; format: cell-based, guinea pig
[2] = tested on: distal colon mucosa/submucosa preparations; test: Ussing chamber: short circuit current (chloride ion secretion) across colonic mucosa/submucosa preparations; format: cell-based, guinea pig

## NC1=N[C@H](O)[C@H]2[C@H]3O[C@]4(O)O[C@@H]([C@@H](O)[C@@]2(N1)[C@@H]4O)[C@]3(O)CO [TTX, Tetrodotoxin]
[1]
  Effect of TTX pre-treatment on muscle contraction stimulated by ACH and extracts: no significant effect

## CN1[C@@H]2CC[C@H]1C[C@@H](OC(=O)C(CO)c1ccccc1)C2 (stereo partly drawn) [atropine]
[1]
  Effect of atropine pre-treatment on muscle contraction stimulated by ACH and extracts: completely abrogated stimulation; also recorded: completely abolished
[2]
  Effect of atropine applied mucosally on secretion stimulated by ACH applied serosally: secretion was inhibited
  Effect of atropine applied on mucosal side on secretion stimulated from the mucosal side: only partially inhibiting ACH activity; also recorded: not mucosally
  Effect of atropine applied on serosal side on secretion stimulated from the mucosal side: significantly inhibited; also recorded: completely abrogated secretion
  Effect of atropine pre-treatment on secretion stimulated by ACH and extracts: completely abolished the response; also recorded: completely abrogated secretion stimulation
